In ChEMBL document CHEMBL1134578, “X-Ray crystal structures of Candida albicans dihydrofolate reductase: high resolution ternary complexes in which the dihydronicotinamide moiety of NADPH is displaced by an inhibitor” (J Med Chem, 2001):

Assays:
[1] = molecular target: T1, Dihydrofolate reductase (Candida albicans, UniProt P22906); assay: Inhibitory activity against Candida albicans Dihydrofolate Reductase (DHFR)
T1 sequence (P22906 whole entry): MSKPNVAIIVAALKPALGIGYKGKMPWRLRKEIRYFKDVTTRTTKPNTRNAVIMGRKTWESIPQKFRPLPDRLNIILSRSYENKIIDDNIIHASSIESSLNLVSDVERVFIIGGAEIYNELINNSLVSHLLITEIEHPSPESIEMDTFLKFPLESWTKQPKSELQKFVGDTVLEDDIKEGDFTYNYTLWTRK

[2] = Selective ratio of Human / Candida albicans was determined
[3] = molecular target: T2, Dihydrofolate reductase (Homo sapiens, UniProt P00374); assay: Inhibitory activity against recombinant human dihydrofolate reductase
T2 sequence (P00374 whole entry): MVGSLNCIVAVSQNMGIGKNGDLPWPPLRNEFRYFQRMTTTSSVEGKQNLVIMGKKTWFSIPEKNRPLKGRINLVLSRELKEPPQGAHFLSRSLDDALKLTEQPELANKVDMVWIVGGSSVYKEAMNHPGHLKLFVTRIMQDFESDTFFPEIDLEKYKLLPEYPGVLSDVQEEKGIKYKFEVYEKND

Question: Which IC50 [1] does the source give for `CCC(CC)n1ccc2c3c(N)nc(N)nc3ccc21` here?
Answer: 4 nM

Question: What about the SI [2] of the same compound?
Answer: 1.7

Question: What about the IC50 [3] of the same compound?
Answer: 6.6 nM
